Experimental data as given in ChEMBL document CHEMBL4507291 (2021).

Tests used:
[1] = biological target: Dual specificity protein kinase CLK3 (Homo sapiens) (UniProt P49761); test: CLK3 Kinase screen; conditions: Compound concentration 1.0 uM
[2] = biological target: Tyrosine-protein kinase CSK (Homo sapiens) (UniProt P41240); test: CSK Kinase screen; conditions: Compound concentration 1.0 uM
[3] = biological target: Casein kinase I isoform alpha (Homo sapiens) (UniProt P48729); test: CSNK1A1 (CK1 alpha 1) Kinase screen; conditions: Compound concentration 1.0 uM
[4] = biological target: Tyrosine-protein kinase Fgr (Homo sapiens) (UniProt P09769); test: FGR Kinase screen; conditions: Compound concentration 1.0 uM
[5] = biological target: Mitogen-activated protein kinase kinase kinase 10 (Homo sapiens) (UniProt Q02779); test: MAP3K10 (MLK2) Kinase screen; conditions: Compound concentration 1.0 uM
[6] = biological target: T1, MAP/microtubule affinity-regulating kinase 4 (Homo sapiens) (UniProt Q96L34); test: MARK4 Kinase screen; conditions: Compound concentration 1.0 uM
T1 sequence (whole entry): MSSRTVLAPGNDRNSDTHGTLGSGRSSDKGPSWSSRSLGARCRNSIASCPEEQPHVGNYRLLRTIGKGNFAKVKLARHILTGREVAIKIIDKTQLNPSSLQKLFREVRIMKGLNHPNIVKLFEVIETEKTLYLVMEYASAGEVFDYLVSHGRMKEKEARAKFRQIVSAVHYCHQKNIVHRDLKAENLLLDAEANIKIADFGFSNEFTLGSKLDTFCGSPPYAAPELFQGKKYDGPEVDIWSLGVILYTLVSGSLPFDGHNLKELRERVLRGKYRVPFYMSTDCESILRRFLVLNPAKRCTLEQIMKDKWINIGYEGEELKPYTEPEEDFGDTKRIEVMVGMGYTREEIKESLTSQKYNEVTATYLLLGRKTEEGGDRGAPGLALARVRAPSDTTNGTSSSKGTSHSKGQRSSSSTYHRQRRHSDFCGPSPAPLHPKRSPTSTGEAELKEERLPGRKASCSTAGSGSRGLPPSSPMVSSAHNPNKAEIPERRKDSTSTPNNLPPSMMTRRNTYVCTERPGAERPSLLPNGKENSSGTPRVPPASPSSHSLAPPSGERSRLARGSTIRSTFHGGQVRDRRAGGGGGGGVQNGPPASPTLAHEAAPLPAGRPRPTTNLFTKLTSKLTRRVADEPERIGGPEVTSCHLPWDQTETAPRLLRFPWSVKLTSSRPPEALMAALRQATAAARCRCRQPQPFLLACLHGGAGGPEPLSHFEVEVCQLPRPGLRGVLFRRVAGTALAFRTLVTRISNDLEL

[7] = biological target: Myosin light chain kinase 2, skeletal/cardiac muscle (Homo sapiens) (UniProt Q9H1R3); test: MYLK2 (skMLCK) Kinase screen; conditions: Compound concentration 1.0 uM
[8] = biological target: Serine/threonine-protein kinase PAK 6 (Homo sapiens) (UniProt Q9NQU5); test: PAK6 Kinase screen; conditions: Compound concentration 1.0 uM
[9] = biological target: Phosphatidylinositol 4-phosphate 3-kinase C2 domain-containing subunit alpha (Homo sapiens) (UniProt O00443); test: PIK3C2A (PI3K-C2 alpha) Kinase screen; conditions: Compound concentration 1.0 uM
[10] = biological target: Ribosomal protein S6 kinase beta-1 (Homo sapiens) (UniProt P23443); test: RPS6KB1 (p70S6K) Kinase screen; conditions: Compound concentration 1.0 uM
[11] = biological target: T2, Serine/threonine-protein kinase TAO3 (Homo sapiens) (UniProt Q9H2K8); test: TAOK3 (JIK) Kinase screen; conditions: Compound concentration 1.0 uM
T2 sequence (whole entry): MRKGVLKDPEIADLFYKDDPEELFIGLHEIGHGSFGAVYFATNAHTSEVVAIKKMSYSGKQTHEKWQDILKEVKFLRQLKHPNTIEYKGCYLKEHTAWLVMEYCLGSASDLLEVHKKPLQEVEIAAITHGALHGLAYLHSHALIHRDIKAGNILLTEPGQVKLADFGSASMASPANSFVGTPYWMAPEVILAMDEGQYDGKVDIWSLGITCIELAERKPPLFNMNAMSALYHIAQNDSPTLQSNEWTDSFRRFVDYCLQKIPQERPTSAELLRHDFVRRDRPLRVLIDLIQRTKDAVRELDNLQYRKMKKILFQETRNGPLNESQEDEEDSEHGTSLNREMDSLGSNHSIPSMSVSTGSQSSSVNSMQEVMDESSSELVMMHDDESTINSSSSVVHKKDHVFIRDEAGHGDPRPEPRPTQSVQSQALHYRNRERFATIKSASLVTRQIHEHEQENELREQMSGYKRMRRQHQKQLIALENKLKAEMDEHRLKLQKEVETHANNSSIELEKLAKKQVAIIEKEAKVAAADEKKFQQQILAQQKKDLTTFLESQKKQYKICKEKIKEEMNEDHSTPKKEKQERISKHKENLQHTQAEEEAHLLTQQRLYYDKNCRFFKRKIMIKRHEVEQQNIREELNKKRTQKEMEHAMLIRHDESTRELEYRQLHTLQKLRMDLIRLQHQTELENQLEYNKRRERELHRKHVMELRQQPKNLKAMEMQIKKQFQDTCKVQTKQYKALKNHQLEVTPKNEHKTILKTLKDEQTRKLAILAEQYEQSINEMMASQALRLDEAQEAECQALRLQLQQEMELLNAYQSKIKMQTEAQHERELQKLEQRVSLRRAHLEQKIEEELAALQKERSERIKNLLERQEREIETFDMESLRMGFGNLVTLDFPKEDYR

[12] = biological target: T3, Serine/threonine-protein kinase TBK1 (Homo sapiens) (UniProt Q9UHD2); test: TBK1 Kinase screen; conditions: Compound concentration 1.0 uM
T3 sequence (whole entry): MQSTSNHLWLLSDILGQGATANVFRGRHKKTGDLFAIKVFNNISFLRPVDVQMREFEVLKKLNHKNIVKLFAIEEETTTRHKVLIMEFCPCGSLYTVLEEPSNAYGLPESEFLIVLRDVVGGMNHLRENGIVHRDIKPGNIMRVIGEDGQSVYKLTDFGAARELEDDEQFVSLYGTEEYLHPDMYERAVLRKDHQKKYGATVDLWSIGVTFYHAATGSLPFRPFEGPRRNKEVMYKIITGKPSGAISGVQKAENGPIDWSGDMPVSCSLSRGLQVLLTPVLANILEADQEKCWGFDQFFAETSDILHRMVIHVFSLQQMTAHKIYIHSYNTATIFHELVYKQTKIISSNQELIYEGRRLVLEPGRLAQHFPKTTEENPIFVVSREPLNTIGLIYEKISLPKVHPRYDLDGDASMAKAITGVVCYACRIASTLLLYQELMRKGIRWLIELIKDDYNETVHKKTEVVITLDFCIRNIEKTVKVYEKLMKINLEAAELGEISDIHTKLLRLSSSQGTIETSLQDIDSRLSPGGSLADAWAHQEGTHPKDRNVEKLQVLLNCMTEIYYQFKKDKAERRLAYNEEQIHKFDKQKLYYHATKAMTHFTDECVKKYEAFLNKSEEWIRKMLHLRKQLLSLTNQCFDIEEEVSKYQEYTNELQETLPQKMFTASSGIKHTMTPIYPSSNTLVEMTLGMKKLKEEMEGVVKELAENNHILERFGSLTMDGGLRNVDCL

[13] = biological target: Histamine H3 receptor (Homo sapiens) (UniProt Q9Y5N1); conditions: Compound concentration 10.0 uM
[14] = biological target: Alpha-1B adrenergic receptor (Homo sapiens) (UniProt P35368); conditions: Compound concentration 10.0 uM

Measured: inhibition

Histamine H3 receptor (Homo sapiens), sequence (Q9Y5N1 whole entry): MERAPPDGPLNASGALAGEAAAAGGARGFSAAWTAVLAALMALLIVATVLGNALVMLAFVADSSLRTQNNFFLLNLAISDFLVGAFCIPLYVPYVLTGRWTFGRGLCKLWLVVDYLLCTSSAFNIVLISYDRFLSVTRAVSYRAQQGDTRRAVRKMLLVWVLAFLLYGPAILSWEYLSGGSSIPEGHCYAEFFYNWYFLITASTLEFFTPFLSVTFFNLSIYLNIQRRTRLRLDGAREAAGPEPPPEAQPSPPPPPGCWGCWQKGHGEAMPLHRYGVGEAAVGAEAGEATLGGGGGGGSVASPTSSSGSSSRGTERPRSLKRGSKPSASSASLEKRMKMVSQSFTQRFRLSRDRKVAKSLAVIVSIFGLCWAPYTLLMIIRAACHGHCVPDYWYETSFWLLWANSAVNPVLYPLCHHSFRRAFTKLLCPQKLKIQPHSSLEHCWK
Tyrosine-protein kinase CSK (Homo sapiens), sequence (P41240 2-450 limits assumed): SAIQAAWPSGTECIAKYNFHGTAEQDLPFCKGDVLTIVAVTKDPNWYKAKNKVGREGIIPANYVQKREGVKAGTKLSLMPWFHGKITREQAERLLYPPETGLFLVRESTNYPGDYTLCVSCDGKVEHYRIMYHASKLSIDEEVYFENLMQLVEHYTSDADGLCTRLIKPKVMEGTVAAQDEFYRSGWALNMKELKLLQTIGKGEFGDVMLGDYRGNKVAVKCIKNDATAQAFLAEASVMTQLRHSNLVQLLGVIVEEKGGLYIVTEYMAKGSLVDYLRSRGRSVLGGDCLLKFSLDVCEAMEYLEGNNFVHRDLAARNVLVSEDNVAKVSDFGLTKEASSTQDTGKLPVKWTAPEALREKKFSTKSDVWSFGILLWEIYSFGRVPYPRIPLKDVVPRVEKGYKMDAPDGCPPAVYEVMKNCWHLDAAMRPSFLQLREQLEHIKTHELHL
Myosin light chain kinase 2, skeletal/cardiac muscle (Homo sapiens), sequence (Q9H1R3 whole entry): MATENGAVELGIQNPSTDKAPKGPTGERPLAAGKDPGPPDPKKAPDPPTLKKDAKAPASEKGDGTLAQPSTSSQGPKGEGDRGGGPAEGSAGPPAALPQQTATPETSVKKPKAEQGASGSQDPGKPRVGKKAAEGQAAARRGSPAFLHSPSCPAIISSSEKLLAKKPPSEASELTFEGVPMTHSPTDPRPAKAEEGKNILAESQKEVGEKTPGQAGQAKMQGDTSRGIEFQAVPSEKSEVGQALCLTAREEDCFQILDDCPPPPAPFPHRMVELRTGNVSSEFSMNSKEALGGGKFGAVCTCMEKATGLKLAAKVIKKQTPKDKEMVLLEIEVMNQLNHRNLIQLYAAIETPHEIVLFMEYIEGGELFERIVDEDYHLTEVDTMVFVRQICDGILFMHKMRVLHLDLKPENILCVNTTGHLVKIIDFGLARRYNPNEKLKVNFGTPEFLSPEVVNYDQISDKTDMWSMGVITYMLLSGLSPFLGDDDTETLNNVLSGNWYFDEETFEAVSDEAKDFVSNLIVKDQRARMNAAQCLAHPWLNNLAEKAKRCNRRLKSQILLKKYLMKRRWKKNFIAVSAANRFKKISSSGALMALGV
Phosphatidylinositol 4-phosphate 3-kinase C2 domain-containing subunit alpha (Homo sapiens), sequence (O00443 whole entry, the tested form may be a part): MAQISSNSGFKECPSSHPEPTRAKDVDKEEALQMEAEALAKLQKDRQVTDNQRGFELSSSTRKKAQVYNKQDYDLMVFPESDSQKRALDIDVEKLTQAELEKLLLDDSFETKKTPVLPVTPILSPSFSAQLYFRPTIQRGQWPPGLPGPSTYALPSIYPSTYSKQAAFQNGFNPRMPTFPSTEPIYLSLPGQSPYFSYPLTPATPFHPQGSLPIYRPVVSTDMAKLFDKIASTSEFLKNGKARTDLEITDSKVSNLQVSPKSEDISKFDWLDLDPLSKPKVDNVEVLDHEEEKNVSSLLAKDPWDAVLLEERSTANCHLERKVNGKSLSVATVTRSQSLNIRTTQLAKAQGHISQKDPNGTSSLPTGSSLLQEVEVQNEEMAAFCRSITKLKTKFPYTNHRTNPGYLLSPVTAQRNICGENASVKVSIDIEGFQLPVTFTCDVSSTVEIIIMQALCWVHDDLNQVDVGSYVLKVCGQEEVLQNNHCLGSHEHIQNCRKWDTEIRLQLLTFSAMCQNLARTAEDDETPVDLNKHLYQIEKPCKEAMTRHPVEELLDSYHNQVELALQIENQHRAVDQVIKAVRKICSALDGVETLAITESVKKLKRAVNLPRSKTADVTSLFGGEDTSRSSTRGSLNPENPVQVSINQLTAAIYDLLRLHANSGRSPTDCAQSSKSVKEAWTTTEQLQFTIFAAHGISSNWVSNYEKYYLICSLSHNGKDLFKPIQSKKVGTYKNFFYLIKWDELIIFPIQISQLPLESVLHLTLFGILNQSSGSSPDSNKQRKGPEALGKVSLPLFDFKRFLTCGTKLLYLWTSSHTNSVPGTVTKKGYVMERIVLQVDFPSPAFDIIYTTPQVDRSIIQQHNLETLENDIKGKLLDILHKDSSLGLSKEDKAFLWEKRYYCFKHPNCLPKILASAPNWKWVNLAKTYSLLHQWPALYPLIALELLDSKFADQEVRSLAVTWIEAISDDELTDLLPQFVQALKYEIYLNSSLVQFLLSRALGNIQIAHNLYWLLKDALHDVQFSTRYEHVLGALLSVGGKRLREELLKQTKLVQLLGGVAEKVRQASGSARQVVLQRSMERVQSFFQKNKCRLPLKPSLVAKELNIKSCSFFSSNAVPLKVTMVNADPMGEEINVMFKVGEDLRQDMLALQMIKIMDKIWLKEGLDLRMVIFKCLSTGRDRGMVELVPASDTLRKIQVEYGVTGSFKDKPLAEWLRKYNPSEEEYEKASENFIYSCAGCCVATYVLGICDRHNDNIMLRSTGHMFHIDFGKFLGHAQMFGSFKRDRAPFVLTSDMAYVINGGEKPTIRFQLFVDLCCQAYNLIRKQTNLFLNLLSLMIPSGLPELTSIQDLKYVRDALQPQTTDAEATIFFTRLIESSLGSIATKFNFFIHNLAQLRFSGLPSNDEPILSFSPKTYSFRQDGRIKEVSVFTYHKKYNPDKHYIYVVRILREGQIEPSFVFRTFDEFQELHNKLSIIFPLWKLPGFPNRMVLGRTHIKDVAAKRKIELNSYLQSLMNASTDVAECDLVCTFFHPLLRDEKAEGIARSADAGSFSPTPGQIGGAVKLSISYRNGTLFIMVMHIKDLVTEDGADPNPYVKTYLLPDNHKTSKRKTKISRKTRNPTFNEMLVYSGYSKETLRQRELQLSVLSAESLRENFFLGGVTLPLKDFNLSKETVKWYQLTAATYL
Dual specificity protein kinase CLK3 (Homo sapiens), sequence (P49761 whole entry, looked up): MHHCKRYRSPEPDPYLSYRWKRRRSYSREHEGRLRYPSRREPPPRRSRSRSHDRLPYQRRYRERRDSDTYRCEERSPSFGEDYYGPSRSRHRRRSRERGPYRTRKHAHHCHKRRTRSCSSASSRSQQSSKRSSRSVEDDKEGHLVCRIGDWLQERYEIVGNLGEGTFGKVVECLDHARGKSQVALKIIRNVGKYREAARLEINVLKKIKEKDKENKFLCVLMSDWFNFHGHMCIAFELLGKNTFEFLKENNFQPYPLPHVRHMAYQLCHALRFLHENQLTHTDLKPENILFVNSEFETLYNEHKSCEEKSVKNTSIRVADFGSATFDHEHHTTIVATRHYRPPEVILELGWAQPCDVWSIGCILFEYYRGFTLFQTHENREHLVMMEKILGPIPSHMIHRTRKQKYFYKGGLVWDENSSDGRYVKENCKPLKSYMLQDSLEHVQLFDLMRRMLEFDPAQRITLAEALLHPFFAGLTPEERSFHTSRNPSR
Casein kinase I isoform alpha (Homo sapiens), sequence (P48729 2-337 limits assumed): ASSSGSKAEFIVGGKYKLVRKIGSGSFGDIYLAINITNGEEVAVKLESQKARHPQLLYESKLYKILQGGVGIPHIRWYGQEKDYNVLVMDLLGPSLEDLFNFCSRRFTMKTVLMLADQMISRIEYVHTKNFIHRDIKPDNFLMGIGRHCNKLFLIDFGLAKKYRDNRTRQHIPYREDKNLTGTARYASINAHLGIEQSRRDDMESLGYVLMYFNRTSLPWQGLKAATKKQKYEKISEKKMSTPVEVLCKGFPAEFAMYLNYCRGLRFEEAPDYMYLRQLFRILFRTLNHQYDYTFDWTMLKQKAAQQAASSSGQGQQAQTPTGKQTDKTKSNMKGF
Alpha-1B adrenergic receptor (Homo sapiens), sequence (P35368 whole entry): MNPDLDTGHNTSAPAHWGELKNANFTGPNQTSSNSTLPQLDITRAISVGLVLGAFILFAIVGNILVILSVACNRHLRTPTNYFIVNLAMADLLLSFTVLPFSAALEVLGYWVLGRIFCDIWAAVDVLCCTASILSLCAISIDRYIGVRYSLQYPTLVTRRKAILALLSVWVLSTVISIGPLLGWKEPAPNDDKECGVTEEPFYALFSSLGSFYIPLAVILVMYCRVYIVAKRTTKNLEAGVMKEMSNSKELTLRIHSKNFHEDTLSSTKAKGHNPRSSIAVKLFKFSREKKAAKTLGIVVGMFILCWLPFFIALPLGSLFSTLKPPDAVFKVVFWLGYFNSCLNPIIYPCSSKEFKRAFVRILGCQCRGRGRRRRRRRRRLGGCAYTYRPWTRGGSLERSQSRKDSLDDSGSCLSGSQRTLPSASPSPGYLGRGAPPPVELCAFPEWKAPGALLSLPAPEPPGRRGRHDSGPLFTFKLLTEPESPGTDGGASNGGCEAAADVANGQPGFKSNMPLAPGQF
Tyrosine-protein kinase Fgr (Homo sapiens), sequence (P09769 2-529 limits assumed): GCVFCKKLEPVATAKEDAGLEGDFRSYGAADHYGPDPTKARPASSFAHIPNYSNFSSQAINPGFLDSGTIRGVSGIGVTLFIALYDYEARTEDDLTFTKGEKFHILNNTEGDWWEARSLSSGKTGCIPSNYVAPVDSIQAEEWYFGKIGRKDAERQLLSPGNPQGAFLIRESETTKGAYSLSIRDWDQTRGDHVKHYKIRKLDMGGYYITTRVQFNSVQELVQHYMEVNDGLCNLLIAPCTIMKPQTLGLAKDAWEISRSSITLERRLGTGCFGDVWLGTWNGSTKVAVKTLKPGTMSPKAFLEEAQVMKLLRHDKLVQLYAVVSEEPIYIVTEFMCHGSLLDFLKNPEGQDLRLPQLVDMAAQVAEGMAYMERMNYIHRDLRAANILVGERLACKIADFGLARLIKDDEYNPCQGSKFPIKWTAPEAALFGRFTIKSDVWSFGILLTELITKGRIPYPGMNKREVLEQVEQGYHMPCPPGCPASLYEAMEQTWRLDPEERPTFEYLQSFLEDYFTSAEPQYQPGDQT

C[C@@H]1CN(c2cc(-c3n[nH]c4ccc(OC5(C)CC5)cc34)ncn2)C[C@H](C)O1 [MLi-2]
inactive: [1] 8.93% | [2] 5.55% | [3] 1.89% | [4] -2.24% | [5] 0.659% | [6] 15.7% | [7] 1.42% | [8] 1.67% | [9] -0.741% | [10] 5.26% | [11] 0.385% | [12] 7.78%

C[C@@H]1CN(c2cc(-c3nn(C)c4ccc(OC5(C)CC5)cc34)ncn2)C[C@H](C)O1 [MLi-2-NC]
inactive: [13] -6.25% | [14] 3.72%
